From ChEMBL document CHEMBL1142290, “Synthesis of novel oxazolidinone antimicrobial agents” (2008)
Values after ≈ are worked out from the molar mass of the structure shown. Active and inactive are the calls of the source. The calls are words filed in the database; no cut-off is given here.

Experiments:
Staphylococcus aureus = assay: Antimicrobial activity against Staphylococcus aureus ATCC 29213 after 24 hrs; format: functional; conditions: ATCC 29213, 24 h
Escherichia coli = assay: Antimicrobial activity against Escherichia coli ATCC 25922 upto 100 ug/ml after 24 hrs; format: functional, organism-based

| MIC (Staphylococcus aureus) | SMILES | Activity (Escherichia coli) |
| --- | --- | --- |
| > 50 µg/mL | CCCCc1cn(C[C@H]2CN(c3ccc4c(c3)Oc3ccccc3O4)C(=O)O2)nn1 | inactive |
| > 50 µg/mL | O=C(O)c1cn(C[C@H]2CN(c3ccc4c(c3)Oc3ccccc3O4)C(=O)O2)nn1 | inactive |
| 2 µg/mL (≈ 5.88 µM) | CC(=O)NC[C@H]1CN(c2ccc3c(c2)Oc2ccccc2O3)C(=O)O1 | – |
| > 50 µg/mL | O=C1O[C@@H](Cn2ccnn2)CN1c1ccc2c(c1)Oc1ccccc1O2 | inactive |
